# Reference: ChEMBL document CHEMBL1129354, “Molecular modeling and site-directed mutagenesis studies of a phorbol ester-binding site in protein kinase C” (J Med Chem, 1996)
# Active and inactive are the calls of the source. The rule behind the calls is not given here.
# Target: Protein kinase C alpha type (Homo sapiens) (UniProt P17252)
# Experiment: Relative binding affinity for Protein kinase C alpha (Inactive)
smiles,measurement,value
CCCCCCCCCCCCCCCC(=O)OC[C@@H](CO)OC(=O)CCCCCCCCCCCCCCC,Relative binding affinity,inactive
